Source: publication PMC8230625 (International Journal of Molecular Sciences, 2021)
Several values for one entry are separate records, joined by “and”; a condition that tells them apart may be missing. Identical values can stand only once. Like-named read-outs stand apart in the source and are kept apart here.

What was measured:
[1] = target: T1, hERα (Saccharomyces cerevisiae BLYES strain) (Homo sapiens, UniProt P03372); assay: cell-based; type: cell-based; settings: for CI Value (combination index) / Combined Estrogenic Effect / Combined Estrogenic Effect (grade symbol): + 6.28 × 10^−2 µM ZEN; for Combined estrogenic effect in Figure 5B: + 62.8 ×10^-3 μM ZEN; for Effect of subtoxic (non-estrogenic) concentration of the compound on the estrogenic effect of ZEN: co-treatment with ZEN (approx. 20% estrogenicity), α-ZEL 1.56 × 10^−3 µM, ZAN 6.24 × 10^−3 µM, AOH up to 48.4 µM, Figure 5A; for Concentration at (and above) which statistically significant (p < 0.01) estrogenic effect was observed: single compound
T1 construct: expressed in transfected cells; host or cells: Saccharomyces cerevisiae BLYES strain (hERα gene integrated in the chromosome)
T1 sequence (P03372 whole entry): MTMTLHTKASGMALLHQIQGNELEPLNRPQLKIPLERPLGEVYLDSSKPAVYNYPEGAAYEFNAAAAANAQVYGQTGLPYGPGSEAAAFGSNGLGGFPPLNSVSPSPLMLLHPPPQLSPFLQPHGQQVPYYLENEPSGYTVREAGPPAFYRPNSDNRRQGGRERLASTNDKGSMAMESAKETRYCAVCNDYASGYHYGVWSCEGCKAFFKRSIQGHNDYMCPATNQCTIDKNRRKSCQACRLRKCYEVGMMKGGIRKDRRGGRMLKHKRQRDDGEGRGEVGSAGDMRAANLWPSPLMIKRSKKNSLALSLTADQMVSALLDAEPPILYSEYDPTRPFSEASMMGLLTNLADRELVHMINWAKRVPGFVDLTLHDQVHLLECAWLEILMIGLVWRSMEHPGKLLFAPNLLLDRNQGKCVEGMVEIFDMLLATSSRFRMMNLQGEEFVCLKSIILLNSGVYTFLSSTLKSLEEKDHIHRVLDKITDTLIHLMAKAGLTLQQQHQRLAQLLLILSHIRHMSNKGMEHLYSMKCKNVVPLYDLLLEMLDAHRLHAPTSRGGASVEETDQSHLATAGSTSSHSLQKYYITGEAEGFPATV
From the text: The Saccharomyces cerevisiae BLYES strain was applied to examine the estrogenic activity of the compounds tested. This bioluminescent yeast bioreporter harbors the hERα gene on its chromosome, and it has two plasmids with genes responsible for bioluminescence. The pUTK404 plasmid contains luxC, -D, and -E genes from Photorhabdus luminescens and flavin oxidoreductase gene (frp) from Vibrio harveyi. The pUTK407 plasmid contains tandem estrogen responsive elements (EREs) that initiate the transcription of luxA and luxB genes after binding the dimer formed by estrogen receptor—ligand complexes.
S. cerevisiae BLYES strain was grown in 30 mL of yeast growth medium (YMM leu-, ura-) for 18–20 h at 30 °C.
Stock solutions of the compounds tested were prepared in methanol and stored at −20 °C. Estrogen assays were carried out on 96-well (PS, F-bottom) microplates (Greiner Bio-One Hungary Ltd., Mosonmagyaróvár, Hungary). In single compound tests, stock solutions of the compounds were serially diluted with methanol; whereas, in co-exposure experiments, a 20-µL mixture of the solutions was placed into the wells of the microplates. After the evaporation of methanol, yeast culture (200 µL; OD600 of 1.000 ± 0.050) were pipetted into each well. E2 was applied as a positive control, while wells containing only yeast cells and yeast cells with methanol served as negative and solvent controls, respectively. Bioluminescence (cps, counts per second) was measured after 5-h incubation (30 °C) with a VictorX Multilabel Plate Reader (Perkin Elmer Inc., Waltham, MA, USA).
(§1) Combined effects were evaluated based on combination indices (CI) determined using the CompuSyn software (ComboSyn Inc., Paramus, NJ, USA) by the median-effect equation of the mass-action law:(1) logfa/fu=m×log(D)−m×log(Dm), where fa and fu are the affected and unaffected fractions of the system, respectively; D represents the dose, Dm denotes the dose necessary for the production of median effect, while m is the sigmoidicity coefficient (m > 1 sigmoidal, m = 1 hyperbolic, m < 1 flat sigmoidal).
(§2) The combined effects of mycotoxins were determined by the CI values calculated based on the following equation [68]:(2) CI=(D)1/(Dx)1+(D)2/(Dx)2, where (Dx)1 and (Dx)2 are the individual doses necessary for the production of x% effect, while (D)1 and (D)2 are the doses of the two compounds that combined evoke the same effect as (Dx)1 alone or (Dx)2 alone, i.e., the targeted x% effect.
Zero percent was defined in each measurement as the mean of the methanol control values, and 100% was defined as the mean of all plateau values of single compounds’ concentration—response curves.

[2] = system: HeLa cells; assay: in vitro; settings: for Concentration at (and above) which statistically significant (p < 0.01) decrease in cell viability was noticed: 24 h incubation, single compound; for IC50: Homo sapiens, read-out: Dm (IC50), viability of HeLa cells (ATP/well); for Effect of the non-toxic (subtoxic) concentration of the compound on ATP levels of ZEN-exposed cells: co-exposure with toxic concentration of ZEN (20 μM), compared to ZEN-exposed cells, Figure 3A
Protocol: (§3) The HeLa cervical cancer adherent cell line (ATCC: CCL-2) was applied for the evaluation of individual and combined effects of mycotoxins on cell viability. The cells were cultured in DMEM (high glucose, 4500 mg/L) with 10% FBS, penicillin (100 U/mL), and streptomycin (100 μg/mL) in sterile plastic cell culture flasks (75 cm^2; 5% CO2, 37 °C). The cells were trypsinized and plated onto 96-well sterile plastic plates. Stock solutions (each 5000 μM) of ZEN, ZELs, ZAN, and ZALs used in cell experiments were prepared in 96 v/v% ethanol (spectroscopic grade; VWR, Debrecen, Hungary). Stock solutions of AOH (5000 μM or 40 mM) were prepared in spectroscopic grade dimethyl sulfoxide (DMSO; Fluka, Morris Plains, NJ, USA). Mycotoxin stock solutions were stored at −20 °C.
(§4) HeLa cells were treated with ZEN, α/β-ZEL, ZAN, α/β-ZAL, and AOH (0–250 μM) for 24 h. […] The cell viability was evaluated based on the ATP levels/well employing a previously described method without modifications.
as §1, §2

[3] = in vitro; settings: human
Protocol: as §3, §4, §1, §2

[4] = BLYES, higher concentration (µM): α-ZEL 1.25 × 10^−2, β-ZEL 2.43, ZAN 4.99 × 10^−2, α-ZAL 2.48 × 10^−2, β-ZAL 2.48 × 10^−1, GEN 1.48
[5] = BLYES, higher estrogenic concentration of the compound (as E22)
[6] = BLYES, lower concentration (µM): α-ZEL 6.24 × 10^−3, β-ZEL 1.22, ZAN 2.50 × 10^−2, α-ZAL 1.24 × 10^−2, β-ZAL 1.24 × 10^−1, GEN 7.4 × 10^−1
[7] = BLYES, lower estrogenic concentration of the compound (as E21)
[8] = BLYES, higher estrogenic concentration of the compound (as E20)
[9] = BLYES, lower estrogenic concentration of the compound (as E19)
[10] = HeLa, 24 h, 10 µM (lower toxic concentration) of the compound + 20 µM ZEN
[11] = HeLa, 24 h, 10 µM of the compound + 20 µM ZEN
[12] = HeLa, 24 h, 10 µM of the compound + 20 µM ZEN, CompuSyn
[13] = HeLa, 24 h, 30 µM (higher toxic concentration) of the compound + 20 µM ZEN
[14] = HeLa, 24 h, 30 µM of the compound + 20 µM ZEN
[15] = HeLa, 24 h, 30 µM of the compound + 20 µM ZEN, CompuSyn

## C[C@H]1CCCC(=O)CCCCCc2cc(O)cc(O)c2C(=O)O1 [ZAN, zearalanone]
[1]
  EC50: 0.048 µM
[1]; [4]
  CI Value (combination index): 0.62
[1]; [5]
  Combined Estrogenic Effect: Synergism (CI < 0.8: synergism)
  Combined Estrogenic Effect (grade symbol): + (0.60 < CI < 0.80: +)
[1]; [6]
  CI Value (combination index): 0.58
[1]; [7]
  Combined Estrogenic Effect: Synergism (CI < 0.8: synergism)
  Combined Estrogenic Effect (grade symbol): ++ (CI < 0.60: ++)
[1]; [8]
  Combined estrogenic effect in Figure 5B: synergism
[1]; [9]
  Combined estrogenic effect in Figure 5B: synergism
[1]; BLYES
  Effect of subtoxic (non-estrogenic) concentration of the compound on the estrogenic effect of ZEN: statistically significant (p < 0.05) increases
  Concentration at (and above) which statistically significant (p < 0.01) estrogenic effect was observed: 0.012 µM
[2]; [10]
  Combined cytotoxic effect in Figure 3B: Syn and synergism
[2]; [11]
  Combined Cytotoxic Effect: Synergism (CI < 0.8: synergism)
  Combined Cytotoxic Effect (grade symbol): ++ (CI < 0.60: ++)
[2]; [12]
  CI Value (combination index): 0.55
[2]; [13]
  Combined cytotoxic effect in Figure 3B: Syn and synergism
[2]; [14]
  Combined Cytotoxic Effect: Synergism (CI < 0.8: synergism)
  Combined Cytotoxic Effect (grade symbol): + (0.60 < CI < 0.80: +)
[2]; [15]
  CI Value (combination index): 0.77
[2]; HeLa
  Concentration at (and above) which statistically significant (p < 0.01) decrease in cell viability was noticed: 10 µM
[2]; HeLa, 24 h
  IC50: 61.5 µM
[3]
  cytotoxicity at 10 µM: 13.2%
  cytotoxicity at 30 µM: 34.8%

## C[C@H]1CCCC(=O)CCC/C=C/c2cc(O)cc(O)c2C(=O)O1 [ZEN, zearalenone]
[1]
  EC50: 0.46 µM
[1]; BLYES, ZEN alone at 62.8 ×10^-3 μM (6.3 × 10^−2 µM)
  Estrogenic effect (% increase), individual effect: approximately 20%
[1]; BLYES
  Concentration at (and above) which statistically significant (p < 0.01) estrogenic effect was observed: 0.031 µM
[2]; HeLa
  Concentration at (and above) which statistically significant (p < 0.01) decrease in cell viability was noticed: 10 µM
[2]; HeLa, 24 h
  IC50: 56.4 µM
[2]; read-out: Decrease in cellular ATP levels (% of control), individual effect, HeLa, 24 h, single compound at 20 μM, 20 µM
  cytotoxicity: ~30%
[3]; Decrease in cellular ATP levels (% of control), individual effect, HeLa, 24 h, single compound at 20 μM
  cytotoxicity at 24 h, 20 µM: 30.1%

## C[C@H]1CCC[C@H](O)CCCCCc2cc(O)cc(O)c2C(=O)O1 [α-ZAL, α-zearalanol]
[1]
  EC50: 0.019 µM
[1]; [4]
  CI Value (combination index): 1.16
[1]; [5]
  Combined Estrogenic Effect: Additive effect (0.8 < CI < 1.2: additive effect)
  Combined Estrogenic Effect (grade symbol): ± (0.80 < CI < 1.20: ±)
[1]; [6]
  CI Value (combination index): 0.97
[1]; [7]
  Combined Estrogenic Effect: Additive effect (0.8 < CI < 1.2: additive effect)
  Combined Estrogenic Effect (grade symbol): ± (0.80 < CI < 1.20: ±)
[1]; [8]
  Combined estrogenic effect in Figure 5B: additive combined effects
[1]; [9]
  Combined estrogenic effect in Figure 5B: additive combined effects
[1]; BLYES
  Concentration at (and above) which statistically significant (p < 0.01) estrogenic effect was observed: 0.024 µM
[2]
  CI Value (combination index): 0.78 and 0.52
[2]; [10]
  Combined cytotoxic effect in Figure 3B: Syn
[2]; [11]
  Combined Cytotoxic Effect: Synergism (CI < 0.8: synergism)
  Combined Cytotoxic Effect (grade symbol): ++ (CI < 0.60: ++)
[2]; [13]
  Combined cytotoxic effect in Figure 3B: Syn
[2]; [14]
  Combined Cytotoxic Effect: Synergism (CI < 0.8: synergism)
  Combined Cytotoxic Effect (grade symbol): + (0.60 < CI < 0.80: +)
[2]; HeLa, 24 h
  Effect of the non-toxic (subtoxic) concentration of the compound on ATP levels of ZEN-exposed cells: statistically significant (p < 0.01) decreases in ATP levels
  IC50: 63.8 µM
[2]; HeLa
  Concentration at (and above) which statistically significant (p < 0.01) decrease in cell viability was noticed: 20 µM
[3]
  cytotoxicity at 10 µM: 1.9%
  cytotoxicity at 30 µM: 19.3%

## C[C@H]1CCC[C@H](O)CCC/C=C/c2cc(O)cc(O)c2C(=O)O1 [α-ZEL, α-zearalenol]
[1]
  EC50: 0.019 µM
[1]; [4]
  CI Value (combination index): 0.41
[1]; [5]
  Combined Estrogenic Effect: Synergism (CI < 0.8: synergism)
  Combined Estrogenic Effect (grade symbol): ++ (CI < 0.60: ++)
[1]; [6]
  CI Value (combination index): 0.37
[1]; [7]
  Combined Estrogenic Effect: Synergism (CI < 0.8: synergism)
  Combined Estrogenic Effect (grade symbol): ++ (CI < 0.60: ++)
[1]; [8]
  Combined estrogenic effect in Figure 5B: synergism
[1]; [9]
  Combined estrogenic effect in Figure 5B: synergism
[1]; BLYES
  Effect of subtoxic (non-estrogenic) concentration of the compound on the estrogenic effect of ZEN: statistically significant (p < 0.05) increases
[2]; [10]
  Combined cytotoxic effect in Figure 3B: Syn
[2]; [11]
  Combined Cytotoxic Effect: Synergism (CI < 0.8: synergism)
  Combined Cytotoxic Effect (grade symbol): ++ (CI < 0.60: ++)
[2]; [12]
  CI Value (combination index): 0.57
[2]; [13]
  Combined cytotoxic effect in Figure 3B: Add
[2]; [14]
  Combined Cytotoxic Effect: Additive effect (0.8 < CI < 1.2: additive effect)
  Combined Cytotoxic Effect (grade symbol): ± (0.80 < CI < 1.20: ±)
[2]; [15]
  CI Value (combination index): 0.81
[2]; HeLa
  Concentration at (and above) which statistically significant (p < 0.01) decrease in cell viability was noticed: 20 µM
[2]; HeLa, 24 h
  IC50: 44.6 µM
[3]
  cytotoxicity at 10 µM: 5.5%
  cytotoxicity at 30 µM: 38.4%

## C[C@H]1CCC[C@@H](O)CCCCCc2cc(O)cc(O)c2C(=O)O1 [β-ZAL, β-zearalanol]
[1]
  EC50: 0.18 µM
[1]; [4]
  CI Value (combination index): 1.56
[1]; [5]
  Combined Estrogenic Effect: Antagonism (CI > 1.2: antagonism)
  Combined Estrogenic Effect (grade symbol): -- (CI > 1.40: --)
[1]; [6]
  CI Value (combination index): 1.19
[1]; [7]
  Combined Estrogenic Effect: Additive effect (0.8 < CI < 1.2: additive effect)
  Combined Estrogenic Effect (grade symbol): ± (0.80 < CI < 1.20: ±)
[1]; [8]
  Combined estrogenic effect in Figure 5B: antagonism
[1]; [9]
  Combined estrogenic effect in Figure 5B: additive effect
[1]; BLYES
  Concentration at (and above) which statistically significant (p < 0.01) estrogenic effect was observed: 0.03 µM
[2]
  CI Value (combination index): 0.51 and 0.72
[2]; [10]
  Combined cytotoxic effect in Figure 3B: Syn
[2]; [11]
  Combined Cytotoxic Effect: Synergism (CI < 0.8: synergism)
  Combined Cytotoxic Effect (grade symbol): ++ (CI < 0.60: ++)
[2]; [13]
  Combined cytotoxic effect in Figure 3B: Syn
[2]; [14]
  Combined Cytotoxic Effect: Synergism (CI < 0.8: synergism)
  Combined Cytotoxic Effect (grade symbol): + (0.60 < CI < 0.80: +)
[2]; HeLa, 24 h
  Effect of the non-toxic (subtoxic) concentration of the compound on ATP levels of ZEN-exposed cells: statistically significant (p < 0.01) decreases in ATP levels
  IC50: 64.5 µM
[2]; HeLa
  Concentration at (and above) which statistically significant (p < 0.01) decrease in cell viability was noticed: 10 µM
[3]
  cytotoxicity at 10 µM: 9.6%
  cytotoxicity at 30 µM: 28%
